Data taken from patent US20240294895A1, “ENZYMATIC COMPOSITIONS FOR CARBOHYDRATE ANTIGEN CLEAVAGE ON DONOR ORGANS, METHODS AND USES ASSOCIATED THEREWITH” (THE UNIVERSITY OF BRITISH COLUMBIA, priority 2018, published 2024).

Legend:
Format in all cases: biochemical
[1] = target: T1, Flavonifractor plautii Galactosaminidase (FpGalNase), full length, SEQ ID NO: 7, 9, 10 (Flavonifractor plautii, UniProt P0DTR5); test: Kinetic parameters of FpGalNase full length (MU or pNP release); details: versus corresponding GalN-antigen
T1 sequence (P0DTR5 with tags, fused parts or gaps): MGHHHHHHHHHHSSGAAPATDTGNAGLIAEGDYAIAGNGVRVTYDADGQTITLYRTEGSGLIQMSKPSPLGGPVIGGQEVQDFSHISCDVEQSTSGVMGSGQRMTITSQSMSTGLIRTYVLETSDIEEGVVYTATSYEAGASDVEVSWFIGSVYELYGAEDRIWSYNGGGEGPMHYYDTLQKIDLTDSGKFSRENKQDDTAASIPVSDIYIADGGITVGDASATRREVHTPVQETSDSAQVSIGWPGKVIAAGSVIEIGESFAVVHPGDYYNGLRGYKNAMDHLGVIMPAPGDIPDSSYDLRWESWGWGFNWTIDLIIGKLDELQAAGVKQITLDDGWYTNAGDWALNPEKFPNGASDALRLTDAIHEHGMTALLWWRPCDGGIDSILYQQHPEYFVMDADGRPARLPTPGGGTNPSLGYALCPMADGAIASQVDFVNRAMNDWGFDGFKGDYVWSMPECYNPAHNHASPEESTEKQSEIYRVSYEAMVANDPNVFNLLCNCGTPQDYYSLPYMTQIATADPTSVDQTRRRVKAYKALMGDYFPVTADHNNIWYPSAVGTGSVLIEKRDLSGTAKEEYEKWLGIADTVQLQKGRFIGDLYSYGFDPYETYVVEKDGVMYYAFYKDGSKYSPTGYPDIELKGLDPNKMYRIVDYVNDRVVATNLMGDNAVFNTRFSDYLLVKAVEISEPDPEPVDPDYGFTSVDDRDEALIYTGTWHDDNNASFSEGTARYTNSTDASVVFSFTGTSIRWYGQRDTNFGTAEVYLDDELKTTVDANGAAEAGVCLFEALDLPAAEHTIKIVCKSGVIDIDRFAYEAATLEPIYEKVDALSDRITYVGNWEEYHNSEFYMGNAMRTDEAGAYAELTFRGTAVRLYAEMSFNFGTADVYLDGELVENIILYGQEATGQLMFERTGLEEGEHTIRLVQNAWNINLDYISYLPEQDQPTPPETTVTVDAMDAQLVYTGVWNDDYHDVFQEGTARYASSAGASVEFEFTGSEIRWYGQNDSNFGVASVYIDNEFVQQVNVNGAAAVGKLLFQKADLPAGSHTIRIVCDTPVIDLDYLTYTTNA
Protocol: All kinetic assays utilizing 4-methylumbelliferone as leaving group were performed through measurement of fluorescence. To avoid measurement errors based on the inner filter effect (Palmier 2007) standard curves were used to validate the linear range of the fluorophore.
Michaelis-Menten parameter was determined for GalN antigen subtype 1penta-MU and A antigen subtype 1penta-MU in 100 mM NaH2PO4, pH 7.4 at 37° C. Reaction was performed in 100 μl with 3.4 nM FpGalactosaminidase (5.31 nM FpGalNase_truncA) and 0.1 mg/mL SpHex, AfcA, 0.2 mg/mL BgaC and varying concentrations of substrate (5 μM-2 mM). The reactions were run as a series of four with controls (no FpGalactosaminidase) as duplicates. The fluorescence signal (365/435 nm) resulting from MU release by hydrolysis was monitored by Synergy H1™ plate reader [BioTek™] and converted to concentration using MU standard concentration curves determined under identical reaction conditions. Initial rates (μM/s) were determined and plotted in Grafit 7.0™ to determine the kinetic parameters.
kcat/KM parameter was determined for GalN antigen subtype 1/2/4tetra-MU and B antigen subtype 1tetra-MU at pH 7.4 and 37° C. […] Initial rates (μM/s) were determined and plotted in Grafit 7.0™ to determine the kcat/KM (s^−1*mM^−1) parameters. […]

[2] = tested on: Flavonifractor plautii GalNAcDeacetylase FpGalNAcDeAc_D1min, mutant C99A; test: Cleavage of A antigen Type2tetra-MU by FpGalNAcDeAc_D1min C99A; details: pH 7.4, 37° C.
Protocol: (§1) kcat/KM parameter were determined for A antigen subtype 1/2/4tetra-MU at pH 7.4 at 37° C. Reactions (total volume of 100 μL) were performed in black 96-plate wells and as coupled assays in 100 mM NaH2PO4 (pH 7.4) with 12 nM FpGalNAcDeacetylase 0.1 mg/mL SpHex, BgaC (BgaA for subtype II), AfcA, at varying concentrations of substrate (25 μM, 20 μM, 15 μM, 10 μM, 7.5 μM, 5 μM). The reactions were run as a series of four with controls (no FpGalNAcDeacetylase) as duplicates. The fluorescence signal (365/435 nm) resulting from MU release by hydrolysis was monitored on a Synergy H1™ plate reader (BioTek™) and converted to concentration using MU standard concentration curves determined under identical reaction conditions. Initial rates (μM/s) were determined and plotted in Grafit™ 7.0 to determine the kcat/KM (s^−1*mM^−1) parameters.
(§2) Based on structural information (not shown) and sequence alignment (not shown) FpGalNAcDeAc_D1min and FpGalNase_truncA were mutated using the QuickChange™ protocol (Zhang 2004), utilizing the primers noted in TABLE B. The mutants were purified via NiNTA and HIC columns as described above. The structural integrity of all mutants was checked via CD spectroscopy; all tested enzymes were structurally similar to their wild-type. […]

[3] = tested on: Flavonifractor plautii GalNAcDeacetylase FpGalNAcDeAc_D1min, mutant C99S; test: Cleavage of A antigen Type2tetra-MU by FpGalNAcDeAc_D1min C99S; details: pH 7.4, 37° C.
Protocol: as §1, §2

[4] = tested on: Flavonifractor plautii GalNAcDeacetylase FpGalNAcDeAc_D1min, mutant D100N; test: Cleavage of A antigen Type2tetra-MU by FpGalNAcDeAc_D1min D100N; details: substrate depletion method for low-activity mutants
Protocol: kcat/KM parameter were determined for A antigen subtype 1/2/4tetra-MU at pH 7.4 at 37° C. […] The reactions were run as a series of four with controls (no FpGalNAcDeacetylase) as duplicates. The fluorescence signal (365/435 nm) resulting from MU release by hydrolysis was monitored on a Synergy H1™ plate reader (BioTek™) and converted to concentration using MU standard concentration curves determined under identical reaction conditions. […]
Based on structural information (not shown) and sequence alignment (not shown) FpGalNAcDeAc_D1min and FpGalNase_truncA were mutated using the QuickChange™ protocol (Zhang 2004), utilizing the primers noted in TABLE B. The mutants were purified via NiNTA and HIC columns as described above. The structural integrity of all mutants was checked via CD spectroscopy; all tested enzymes were structurally similar to their wild-type. For mutants with relatively low activity, reactions were carried out under the same conditions used for full kinetic determinations; however the substrate depletion method was used for determination of kcat/KM values as has been previously described (Vocadlo 2002). In brief: at low concentrations of substrate where [Substrate]<KM (equivalent to ˜⅕- 1/10 of Km) the kcat/KM value can be approximated upon non-linear fitting of the reaction time course to a first order curve and dividing by the enzyme concentration.

[5] = tested on: Flavonifractor plautii GalNAcDeacetylase FpGalNAcDeAc_D1min, mutant H252A; test: Cleavage of A antigen Type2tetra-MU by FpGalNAcDeAc_D1min H252A; details: substrate depletion method for low-activity mutants
Protocol: as §1, §2

[6] = tested on: Flavonifractor plautii GalNAcDeacetylase FpGalNAcDeAc_D1min, mutant H252F; test: Cleavage of A antigen Type2tetra-MU by FpGalNAcDeAc_D1min H252F; details: substrate depletion method for low-activity mutants
Protocol: as §1, with “Initial rates (μM/s) were determined and plotted in Grafit™ 7.0 to determine the kcat/KM (s^−1*mM^−1) parameters.” left out
as §2

[7] = tested on: Flavonifractor plautii GalNAcDeacetylase FpGalNAcDeAc_D1min, mutant Y315F; test: Cleavage of A antigen Type2tetra-MU by FpGalNAcDeAc_D1min Y315F; details: substrate depletion method for low-activity mutants
Protocol: as §1, §2

kcat/KM for cleavage of B-antigen, times lower than for the corresponding GalN-antigen [1]	Compound	kcat/Km [2]	kcat/Km [3]	kcat/Km [4]	kcat/Km [5]	kcat/Km [6]	kcat/Km [7]
over 2000 times lower	CC(=O)N[C@H]1[C@H](Oc2ccc3c(C)cc(=O)oc3c2)O[C@H](CO)[C@@H](O)[C@@H]1O[C@@H]1O[C@H](CO)[C@H](O)[C@H](O[C@H]2O[C@H](CO)[C@H](O)[C@H](O)[C@H]2O)[C@H]1O[C@@H]1O[C@@H](C)[C@@H](O)[C@@H](O)[C@@H]1O [B antigen Type1tetra-MU]	–	–	–	–	–	–
–	CC(=O)N[C@H]1[C@H](Oc2ccc3c(C)cc(=O)oc3c2)O[C@H](CO)[C@@H](O[C@@H]2O[C@H](CO)[C@H](O)[C@H](O[C@H]3O[C@H](CO)[C@H](O)[C@H](O)[C@H]3NC(C)=O)[C@H]2O[C@@H]2O[C@@H](C)[C@@H](O)[C@@H](O)[C@@H]2O)[C@@H]1O [A antigen Type2tetra-MU]	2344.67 ± 96.63 M⁻¹ s⁻¹	1259.9 ± 41.52 M⁻¹ s⁻¹	1.22 ± 0.083 M⁻¹ s⁻¹	1.4 ± 0.2 M⁻¹ s⁻¹	0.5 ± 0.033 M⁻¹ s⁻¹	2.78 ± 0.65 M⁻¹ s⁻¹
